Measured values reported in PubChem BioAssay (NCI).
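Method: 48-hour compound exposure of cells in 96-well plates, five concentrations, linear interpolation of endpoints. TGI is the concentration that stops growth completely.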

Key:
Assay in all cases: NCI tumour cell line growth inhibition, 48 h
[1] = system: UACC-62 melanoma
[2] = system: HT29 colon
[3] = system: MDA-MB-231 breast
[4] = system: MDA-N
[5] = system: SK-MEL-2 melanoma
[6] = system: SNB-75 CNS
[7] = system: SK-MEL-28 melanoma
[8] = system: SN12C renal
[9] = system: HCT-116 colon
[10] = system: U251 CNS
[11] = system: ACHN renal
[12] = system: SF-539 CNS
[13] = system: KM12 colon
[14] = system: EKVX NSCLC
[15] = system: OVCAR-3 ovarian
[16] = system: MDA-MB-435
[17] = system: SW-620 colon
[18] = system: SK-OV-3 ovarian
[19] = system: MCF7 breast
[20] = system: HCT-15 colon
[21] = system: M14 melanoma
[22] = system: NCI-H23 lung
[23] = system: UACC-257 melanoma
[24] = system: PC-3 prostate
[25] = system: OVCAR-5 ovarian
[26] = system: DU-145 prostate
[27] = system: A549 NSCLC
[28] = system: OVCAR-4 ovarian
[29] = system: NCI-H226 lung
[30] = system: COLO 205 colon
[31] = system: NCI/ADR-RES ovarian
[32] = system: CCRF-CEM leukemia
[33] = system: HOP-62 NSCLC
[34] = system: K-562 leukemia
[35] = system: IGROV1 ovarian
[36] = system: NCI-H522 lung
[37] = system: CAKI-1 renal
[38] = system: UO-31 renal
[39] = system: MOLT-4 leukemia
[40] = system: T-47D breast
[41] = system: OVCAR-8 ovarian
[42] = system: SF-295 CNS
[43] = system: NCI-H460 lung
[44] = system: RPMI-8226 leukemia
[45] = system: SF-268 CNS
[46] = system: SNB-19 CNS
[47] = system: A498 renal
[48] = system: SR leukemia
[49] = system: MALME-3M melanoma
[50] = system: RXF 393 renal
[51] = system: 786-0 renal
[52] = system: HCC-2998 colon
[53] = system: BT-549 breast
[54] = system: HOP-92 NSCLC
[55] = system: TK-10 renal
[56] = system: HL-60(TB) leukemia
[57] = system: SK-MEL-5 melanoma
[58] = system: LOX IMVI melanoma

Measured: TGI

N#CC1(C#N)C(c2ccccc2)NC23CCCCC2C1(C#N)C(=O)N3 (stereo not given)
not listed: [55] | [56] | [57] | [58]
> 100 µM: all other assays above

CCCCNC(=O)C1=C(C)NC(C)=C(C(=O)NCCCC)C1
not listed: [24] | [32] | [34] | [36] | [44] | [48] | [49]
> 100 µM: all other assays above
